Source: paper PMC4100265, “Inhibition of Human Cytochrome P450 Enzymes by Allergen Removed Rhus verniciflua Stoke Standardized Extract and Constituents” (Evidence-based Complementary and Alternative Medicine : eCAM, 2014)
Read-outs that look alike come from different tables or passages of the source.

Key:
Type in all cases: in vitro ADME
[1] = molecular target: T1, recombinant human CYP2C9 (Homo sapiens, UniProt P11712); assay: Luminogenic P450-Glo enzyme inhibition assay, CYP2C9
T1 construct: purchased Promega (P450-Glo Screening system); host or cells: baculovirus expression system
Procedure: (§1) The assay was carried out using P450-Glo Screening system from Promega (Promega Inc., Madison Wis., USA). It contains recombinant human CYP1A2, CYP2C9, CYP2C19, CYP2D6, and CYP3A4 enzymes in the membranes produced by a baculovirus expression system, specific luminogenic cytochrome enzyme substrates (luciferin 6-methyl ether, luciferin 6-benzyl ether, 6-deoxyluciferin, ethylene glycol ester of 6-deoxyluciferin, and ethylene glycol ester of luciferin 6-methyl ether), negative control membranes, a nicotinamide adenine dinucleotide phosphate hydrogen (NADPH) regeneration system containing NADP+, glucose-6-phosphate, magnesium chloride (MgCl2) and glucose-6-phosphate dehydrogenase (functioning to initiate and sustain the CYP450 reaction by maintaining a non-limiting NADPH system), reaction buffer, luciferin detection reagent, and Luciferin-Free Water. The negative control membranes were devoid of CYP activity. The luminogenic inhibition assays were performed following the protocols from Promega Corp. (Technical Bulletin, P450-Glo Assays, Promega Corp., 2009) and previous studies. […] The 12.5 μL of the luciferin-free water was added individually in both the “untreated” wells representing the values of total CYP activity and the “minus-P450 control” wells representing the values of the CYP-independent background luminescence. Secondly, 12.5 μL of the 4× reaction mixture (containing human CYP membrane preparations, the appropriate luminogenic substrate, and potassium phosphate buffer) was added to the “treated” and the “untreated” wells. The 12.5 μL of the 4× control reaction mixture (containing membrane preparations devoid of CYP enzymes, the appropriate luminogenic substrate, and potassium phosphate buffer) was added to the “minus-P450 control” wells. The plate was preincubated at room temperature (25°C) for 10 min, and then 25 μL of the 2× NADPH regeneration system was added to initiate the reaction. […] The luminescence in all of the samples was measured using a microplate reader as relative light units (RLU) after 20 min incubation to stabilize the luminescent signal. The assay experiments were repeated three independent times. The amount of light produced is directly proportional to the CYP enzyme activity. The net signals from untreated CYP reactions represent total CYP activity (100%). The modulation of the CYP activity by the test compound was determined by comparing the changes from the average net signal of untreated CYP reactions with the changes observed from the test compound. […] USA).

[2] = molecular target: T2, CYP2D6 (Homo sapiens, UniProt P10635); assay: Luminogenic P450-Glo enzyme inhibition assay, CYP2D6
T2 construct: purchased Promega (P450-Glo Screening system); host or cells: baculovirus expression system
Procedure: as §1

[3] = molecular target: T3, recombinant human CYP3A4 (Homo sapiens, UniProt P08684); assay: Luminogenic P450-Glo enzyme inhibition assay, CYP3A4
T3 construct: purchased Promega (P450-Glo Screening system); host or cells: baculovirus expression system
Procedure: as §1

[4] = molecular target: T4, recombinant human CYP2C19 (Homo sapiens, UniProt P33261); assay: Luminogenic P450-Glo enzyme inhibition assay, CYP2C19
T4 construct: purchased Promega (P450-Glo Screening system); host or cells: baculovirus expression system
Procedure: as §1

[5] = molecular target: T5, recombinant human CYP1A2 (Homo sapiens, UniProt P05177); assay: Luminogenic P450-Glo enzyme inhibition assay, CYP1A2
T5 construct: purchased Promega (P450-Glo Screening system); host or cells: baculovirus expression system
T5 sequence (P05177 1-516): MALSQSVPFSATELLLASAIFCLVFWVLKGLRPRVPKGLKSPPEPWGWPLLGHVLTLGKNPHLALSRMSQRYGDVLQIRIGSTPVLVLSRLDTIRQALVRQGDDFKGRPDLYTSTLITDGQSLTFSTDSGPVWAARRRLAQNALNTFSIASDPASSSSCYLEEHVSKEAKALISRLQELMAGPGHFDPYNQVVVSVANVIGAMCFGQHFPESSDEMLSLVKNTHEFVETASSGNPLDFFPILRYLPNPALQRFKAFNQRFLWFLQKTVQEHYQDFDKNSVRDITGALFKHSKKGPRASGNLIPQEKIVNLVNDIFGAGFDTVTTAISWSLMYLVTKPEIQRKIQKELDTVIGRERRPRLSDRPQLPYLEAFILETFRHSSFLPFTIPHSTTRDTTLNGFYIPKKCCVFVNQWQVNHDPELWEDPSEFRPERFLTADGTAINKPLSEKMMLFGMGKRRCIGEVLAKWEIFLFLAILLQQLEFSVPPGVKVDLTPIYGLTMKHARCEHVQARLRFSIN
Procedure: as §1

[6] = classified by IC50 value, read-out: inhibitory potency class on CYP2C9
[7] = recombinant human enzyme, luminescent assay, 30 min incubation, read-out: IC50 CYP2C9 (converted)
[8] = classified by IC50 value, read-out: inhibitory potency class on CYP2D6
[9] = recombinant human enzyme, luminescent assay, 45 min incubation, read-out: IC50 CYP2D6 (converted)
[10] = classified by IC50 value, read-out: inhibitory potency class on CYP3A4
[11] = recombinant human enzyme, luminescent assay, 30 min incubation, read-out: IC50 CYP3A4 (converted)
[12] = classified by IC50 value, read-out: inhibitory potency class on CYP2C19
[13] = recombinant human enzyme, luminescent assay, 30 min incubation, read-out: IC50 CYP2C19 (converted)
[14] = classified by IC50 value, read-out: inhibitory potency class on CYP1A2
[15] = recombinant human enzyme, luminescent assay, 30 min incubation, read-out: IC50 CYP1A2 (converted)

T3 sequence (P08684 whole entry): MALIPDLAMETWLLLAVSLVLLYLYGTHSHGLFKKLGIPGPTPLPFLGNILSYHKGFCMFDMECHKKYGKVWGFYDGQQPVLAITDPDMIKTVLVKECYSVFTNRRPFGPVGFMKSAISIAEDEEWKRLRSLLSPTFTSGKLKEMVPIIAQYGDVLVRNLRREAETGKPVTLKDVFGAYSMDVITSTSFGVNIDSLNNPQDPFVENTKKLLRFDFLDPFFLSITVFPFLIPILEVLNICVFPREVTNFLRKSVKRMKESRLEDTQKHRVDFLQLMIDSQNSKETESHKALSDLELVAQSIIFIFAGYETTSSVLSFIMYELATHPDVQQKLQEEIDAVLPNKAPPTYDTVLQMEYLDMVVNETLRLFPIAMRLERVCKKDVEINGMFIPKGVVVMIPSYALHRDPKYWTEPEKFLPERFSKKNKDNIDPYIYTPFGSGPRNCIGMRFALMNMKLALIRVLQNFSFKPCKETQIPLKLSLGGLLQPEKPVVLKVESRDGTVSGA
T2 sequence (P10635 whole entry): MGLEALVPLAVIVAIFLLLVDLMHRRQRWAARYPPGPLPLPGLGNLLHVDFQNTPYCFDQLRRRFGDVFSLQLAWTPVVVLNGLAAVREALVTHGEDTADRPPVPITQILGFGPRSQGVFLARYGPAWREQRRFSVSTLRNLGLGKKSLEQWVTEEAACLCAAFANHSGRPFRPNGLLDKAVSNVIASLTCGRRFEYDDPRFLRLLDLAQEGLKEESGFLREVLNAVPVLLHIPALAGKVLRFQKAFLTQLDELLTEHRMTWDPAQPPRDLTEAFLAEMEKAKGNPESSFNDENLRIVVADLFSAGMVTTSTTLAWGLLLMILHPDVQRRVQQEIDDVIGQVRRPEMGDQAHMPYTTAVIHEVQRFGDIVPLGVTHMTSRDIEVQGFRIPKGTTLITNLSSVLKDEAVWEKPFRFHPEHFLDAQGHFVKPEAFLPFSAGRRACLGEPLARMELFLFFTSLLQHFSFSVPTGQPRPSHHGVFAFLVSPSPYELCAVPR
T1 sequence (P11712 whole entry): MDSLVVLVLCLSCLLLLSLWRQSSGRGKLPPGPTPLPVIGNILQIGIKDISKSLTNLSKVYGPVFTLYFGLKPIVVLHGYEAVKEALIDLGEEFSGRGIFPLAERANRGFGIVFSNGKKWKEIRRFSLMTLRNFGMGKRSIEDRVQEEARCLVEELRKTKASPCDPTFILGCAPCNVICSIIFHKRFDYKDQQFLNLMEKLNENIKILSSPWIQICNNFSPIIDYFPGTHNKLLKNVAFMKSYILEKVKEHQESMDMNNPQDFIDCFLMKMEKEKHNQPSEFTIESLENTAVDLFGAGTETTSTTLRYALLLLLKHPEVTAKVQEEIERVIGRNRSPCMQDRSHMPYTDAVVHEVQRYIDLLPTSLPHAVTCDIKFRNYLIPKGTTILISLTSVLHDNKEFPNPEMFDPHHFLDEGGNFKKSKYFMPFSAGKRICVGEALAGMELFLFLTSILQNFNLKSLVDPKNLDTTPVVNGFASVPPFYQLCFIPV
T4 sequence (P33261 whole entry): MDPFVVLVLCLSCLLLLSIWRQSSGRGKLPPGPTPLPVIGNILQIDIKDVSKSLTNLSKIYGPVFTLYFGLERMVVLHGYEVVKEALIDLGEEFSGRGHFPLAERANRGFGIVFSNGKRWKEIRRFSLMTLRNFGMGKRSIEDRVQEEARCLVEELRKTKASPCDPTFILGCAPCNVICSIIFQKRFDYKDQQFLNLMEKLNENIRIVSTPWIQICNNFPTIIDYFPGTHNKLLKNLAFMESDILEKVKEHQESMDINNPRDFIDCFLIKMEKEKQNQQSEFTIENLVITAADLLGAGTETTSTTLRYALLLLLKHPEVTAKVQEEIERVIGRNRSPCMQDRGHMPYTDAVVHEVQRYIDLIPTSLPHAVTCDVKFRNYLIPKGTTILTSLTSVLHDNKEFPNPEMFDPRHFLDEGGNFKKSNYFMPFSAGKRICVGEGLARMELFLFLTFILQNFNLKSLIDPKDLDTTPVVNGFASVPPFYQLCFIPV

SMILES | IC50 [1, 6] [µM] | IC50 [1, 7] [µM] | IC50 [2, 8] [µM] | IC50 at 45 min ([2]; human, classified by IC50 value, read-out: inhibitory potency class on CYP2D6) [µg/mL] | IC50 [2, 9] [µM] | IC50 [3, 10] [µM] | IC50 [3, 11] [µM] | IC50 [4, 12] [µM] | IC50 [4, 13] [µM] | IC50 [5, 14] [µM] | IC50 [5, 15] [µM]
O=c1c(O)c(-c2ccc(O)c(O)c2)oc2cc(O)ccc12 [Fisetin, 2-(3,4-dihydroxyphenyl)-3,7-dihydroxychromen-4-one] | < 69.9 | 18.9 | 69.9 to 349 | > 100 | 163 | > 349 | 1080 | < 69.9 | < 0.00349 | < 69.9 | 1.61
O=C1c2ccc(O)cc2OC(c2ccc(O)c(O)c2)C1O (stereo not drawn) [Fustin, 2-(3,4-dihydroxyphenyl)-3,7-dihydroxy-2,3-dihydrochromen-4-one] | > 347 | 1870 | > 347 |  | 18500 | > 347 | 1610 | 69.4 to 347 | 223 | > 347 | 17100
